Paper PMC8449414, “Rational design of ASCT2 inhibitors using an integrated experimental-computational approach” (Proceedings of the National Academy of Sciences of the …, 2021)

Target: T1, hASCT2 (Homo sapiens, UniProt Q15758)
T1 construct: expressed in transfected cells; host or cells: HEK293 (ATCC CRL-11268), transient transfection
T1 sequence (Q15758 1-541): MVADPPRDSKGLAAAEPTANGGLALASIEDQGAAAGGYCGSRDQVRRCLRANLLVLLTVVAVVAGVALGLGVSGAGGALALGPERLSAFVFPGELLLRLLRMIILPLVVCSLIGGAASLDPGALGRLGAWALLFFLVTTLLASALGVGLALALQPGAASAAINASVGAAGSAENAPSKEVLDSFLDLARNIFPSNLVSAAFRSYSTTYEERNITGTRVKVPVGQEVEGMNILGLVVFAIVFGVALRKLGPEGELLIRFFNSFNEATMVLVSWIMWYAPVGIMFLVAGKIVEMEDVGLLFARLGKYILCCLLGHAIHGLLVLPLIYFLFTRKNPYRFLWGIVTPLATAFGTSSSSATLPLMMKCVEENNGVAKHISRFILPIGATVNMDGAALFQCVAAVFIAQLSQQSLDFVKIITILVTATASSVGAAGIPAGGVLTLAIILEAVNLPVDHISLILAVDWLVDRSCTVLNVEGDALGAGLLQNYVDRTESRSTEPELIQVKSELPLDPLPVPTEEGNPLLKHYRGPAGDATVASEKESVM
Assay: Glutamine transport assay in proteoliposomes reconstituted with purified hASCT2
Assay type: biochemical
Details: in the presence of 5 µM glutamine; read-out: IC50, inhibition of glutamine uptake in proteoliposomes
Source text: Our computational models predicted Lc-BPE as a competitive inhibitor targeting the substrate binding site. To test this prediction, we performed electrophysiological competition experiments in the presence of varying concentrations of the substrate, L-alanine. The results were consistent with a competitive inhibition mechanism (SI Appendix, Fig. S4). At low inhibitor concentrations, the alanine-induced currents were inward, as expected from transported substrates, indicative of the inability of Lc-BPE to displace alanine from the binding site. However, as inhibitor concentration increased, the currents became outwardly directed in a dose-dependent manner, which marked the displacement of alanine by the inhibitor (SI Appendix, Fig. S5). The apparent Ki increased as a function of the alanine concentration, as anticipated for a competitive mechanism (SI Appendix, Figs. S5 and S6). […] We further tested the inhibitory activity of Lc-BPE in a cell-free transport assay in proteoliposomes, where purified and reconstituted hASCT2 catalyzes the exchange of intracellular nonlabeled L-glutamine with extracellular radioactive-labeled L-glutamine. We observed a dose-dependent inhibition of glutamine transport when Lc-BPE was added externally, which confirms that this compound is an hASCT2 inhibitor with a half-maximum inhibitory concentration (IC50) value of 20 µM in the presence of 5 µM glutamine (Fig. 2D).
Dilutions to working concentrations were made using external buffer. The highest […]
cells. For rASCT2, hASCT2 and hASCT1, external buffer contained 140 mM NaCl, 2 mM MgCl2, 2 mM CaCl2, and 10 mM HEPES, pH 7.40 while internal pipette solution comprised of 130 mM NaSCN, 2 mM MgCl2, 10 mM EGTA, 10 mM HEPES and 10mM alanine, pH 7.40. […] Current s traces were recorded using an Adams and List EPC7 amplifier and digitized using a Molecular Devices Digidata A/D converter.
Data analysis was performed as described previously 46. Linear and nonlinear curve fitting of the experimental data were analyzed using MicroCal Origin software. […]

| SMILES | IC50 |
| --- | --- |
| N[C@@H](COC(=O)c1ccc(NC(=O)c2ccccc2)cc1)C(=O)O [ERA-21] | 56 µM |
| O=C(O[C@H]1CN[C@H](C(=O)O)C1)c1ccc(C(=O)c2ccccc2)cc1 [ERA-35] | 411 µM |
| O=C(O[C@@H]1CN[C@H](C(=O)O)C1)c1ccc(-c2ccccc2)cc1 [Lc-BPE, L-cis hydroxyproline biphenyl ester] | 20 µM |
